From patent publication US12295997B2, “Prostate neoantigens and their uses” (Janssen Biotech, Inc., priority 2020, dated 2025) come the findings set out here.

This assay relates to CD8+ and CD4+ T cells (autologous CD3+ Pan-T cells isolated from human normal PBMCs). The experiment in a line: Exogenous autologous normal donor restimulation assay (15-mer overlapping peptide pools on CD1c+ dendritic cells, TNFα/IFNγ flow cytometry). It is filed as cell-based. The conditions noted are these: 15-mer overlapping peptide pool; for Maximum Fold Change Over Background CD4+ cells / Maximum Fold Change Over Background CD8+ cells / Maximum Frequency of TNFα/IFNγ Double Positive CD4+ T cells / Maximum Frequency of TNFα/IFNγ Double Positive CD8+ T cells: Table 25; for Maximum Fold Change Over Background CD4+ cells: TNFα+IFNγ+ CD4+ T cells; for Maximum Fold Change Over Background CD4+ cells / Maximum Fold Change Over Background CD8+ cells: highest fold change over negative control across normal donors; for Maximum Fold Change Over Background CD8+ cells: TNFα+IFNγ+ CD8+ T cells; for Maximum Frequency of TNFα/IFNγ Double Positive CD4+ T cells / Maximum Frequency of TNFα/IFNγ Double Positive CD8+ T cells: highest frequency across normal donors; for Max. Fold Change over background CD4+ TNFαINFγ double positive DP / Max. Fold Change over background CD8+ TNFαINFγ double positive DP / Max. Frequency of CD4+ TNFαINFγ DP / Max. Frequency of CD8+ TNFαINFγ DP: Table 28, additional neoantigens, highest across normal donors. As for the experimental part: CD1c+ Dendritic Cells (DC) isolated from human normal PBMCs were thawed using media (IMDM (Gibco) supplemented with glutamine, HEPES, 5% human serum (Sigma), and 1× Pen-Strep). DC cells were resuspended in media supplemented with IL-4 (Peprotech, 80 ng/mL) and GM-CSF (Gibco, 80 ng/mL), plated in 6 well microplates, and rested overnight at 37° C. (5% CO2). The following day, DC cells were counted and plated in a 96 well round bottom microplate at a concentration of 30,000 viable cells per well. Lyophilized peptides (15-mer overlapping peptides) were solubilized in 100% DMSO and pooled by neoantigen to between 5 mg/mL and 20 mg/mL. Neoantigen peptides pools were added to DCs for a final concentration of […] and rested for 2 hours at 37° C. (5% CO2). CEF Peptide Pool “Plus” (Cellular Technologies, Ltd.) was utilized as a positive control and DMSO at the same final concentration as the experimental peptides was utilized as a negative control. After 2 hours, DC cells were irradiated with 50 gray of ionizing radiation. Autologous CD3+ Pan-T cells isolated from human normal PBMCs were thawed using media. Following irradiation, autologous Pan-T cells were added to the irradiated DCs at 300,000 viable cells per well. Human IL-15 (Peprotech) was added to all wells at final concentration of 10 ng/mL.
Plates were incubated at 37° C. (5% CO2) for a total of 12 days. Media was refreshed every 2-3 days with IL-15 (10 ng/mL final concentration) and IL-2 (R&D systems, 10 IU/mL final concentration). On day 11 cells were re-stimulated with identical experimental peptide pools or controls, at same concentration as peptide stimulation on Day 1. Protein Inhibitor Cocktail (eBioscience) was added to every well and plate was incubated overnight at 37° C. (5% CO2).
On day 12, cells were stained for intracellular flow cytometry analysis. The cells were washed with PBS and stained with Live/Dead Fixable Aqua Dead Cell stain (Thermo-Fisher). Following the live/dead stain, cells were blocked using Biotin-Free Fc Receptor Blocker (Accurate Chemical & Scientific Corp). Extracellular cellular flow panel (1 μL/antibody per well in 50 μL) consisted of CD3 PerCP-Cy5.5 (Biolegend), CD4 BV421 (Biolegend), and CD8 APC-Cy7 (Biolegend). After extracellular staining, cells were fixed using Foxp3/fTranscription Factor Staining Buffer Set (eBioscience) and stained for intracellular proteins (1:50 dilution) using TNFα FITC (R&D Systems) and IFNγ BV785 (Biolegend). Cells were washed and resuspended in stain buffer and analyzed using a BD Celesta flow cytometer.
Flow cytometry cell staining analysis was completed using FlowJo v10. Cells were gated on live, singlet, CD3+ cells. The CD8+ and CD4+ T cells were analyzed for TNFα/IFNγ expression and the frequency of double positive TNFα/IFNγ CD8+ and the frequency of double positive TNFα/IFNγ CD4+ T cells were recorded. Responses were assessed to be positive when the frequency of double positive TNFα/IFNγ CD8+ or TNFα/IFNγ CD4+ T cells due to stimulation with an experimental peptide pool was increased greater than or equal to 3-fold over the DMSO only negative control for that donor and at least 0.01%.
Overlapping 15-mer peptides were designed to span each neoantigen incorporated into NeoGAd20 and NeoMVA to assess their ability to activate T cells using the exogenous autologous normal donor restimulation assay described in Example 1 as pools using TNFα and IFNγ production by CD8^+ and CD4^+ T cells as a readout.
Immunogenicity of various additional identified neoantigens was assessed. Overlapping 15-mer peptides were designed to span each neoantigen similarly to what was done in Example 11 to assess their ability to activate T cells using the exogenous autologous normal donor restimulation assay described in Example 1 as pools using TNFα and IFNγ production by CD8^+ and CD4^+ T cells as a readout.

For “TEYNQKLQVNQFSESK (listed as Homo sapiens) [FUS2, ARHGEF38->ARHGEF38-IT1 gene fusion]”, the “Maximum Fold Change Over Background CD4+ cells” value was 2.14, the “Maximum Fold Change Over Background CD8+ cells” value stood at 3.13, the “Maximum Frequency of TNFα/IFNγ Double Positive CD4+ T cells” value amounted to 0.03 and the “Maximum Frequency of TNFα/IFNγ Double Positive CD8+ T cells” value is given as 0.05.

As for “TGGKSTCSAPGPQSLPSTPFSTYPQWVILITEL (listed as Homo sapiens) [AS57, KLK3 alternative splicing]”, the “Maximum Fold Change Over Background CD4+ cells” value was found to be 11.00, the “Maximum Fold Change Over Background CD8+ cells” value is on record as 4.67, the “Maximum Frequency of TNFα/IFNγ Double Positive CD4+ T cells” value is 0.110 and the “Maximum Frequency of TNFα/IFNγ Double Positive CD8+ T cells” value came to 0.056.

Regarding “NSKMALNSEALSVVSE (listed as Homo sapiens) [FUS5, TMPRSS2->ERG gene fusion]”, the “Maximum Fold Change Over Background CD4+ cells” value worked out at 3.43, the “Maximum Fold Change Over Background CD8+ cells” value is 32.50, the “Maximum Frequency of TNFα/IFNγ Double Positive CD4+ T cells” value was found to be 0.048 and the “Maximum Frequency of TNFα/IFNγ Double Positive CD8+ T cells” value stood at 0.390.

Take “KRSFAVTERII (listed as Homo sapiens) [AS13, GRIN3A alternative splicing]”: the “Maximum Fold Change Over Background CD4+ cells” value turned out to be 1.96, the “Maximum Fold Change Over Background CD8+ cells” value is reported as 1.67, the “Maximum Frequency of TNFα/IFNγ Double Positive CD4+ T cells” value turned out to be 0.05 and the “Maximum Frequency of TNFα/IFNγ Double Positive CD8+ T cells” value is 0.10.

On to “GMECTLGQVGAPSPRREEDGWRGGHSRFKADVPAPQGPCWGGQPGSAPSSAPPEQSLLD (listed as Homo sapiens) [AS51, CPNE7 alternative splicing]”, for which the “Maximum Fold Change Over Background CD4+ cells” value came out at 8.75, the “Maximum Fold Change Over Background CD8+ cells” value was found to be 33.13, the “Maximum Frequency of TNFα/IFNγ Double Positive CD4+ T cells” value is reported as 0.140 and the “Maximum Frequency of TNFα/IFNγ Double Positive CD8+ T cells” value stood at 0.530.

For “TMPAILKLQKNCLLSL (listed as Homo sapiens) [MS8]”, the “Maximum Fold Change Over Background CD4+ cells” value worked out at 15.60, the “Maximum Fold Change Over Background CD8+ cells” value came to 4.44, the “Maximum Frequency of TNFα/IFNγ Double Positive CD4+ T cells” value is 0.40 and the “Maximum Frequency of TNFα/IFNγ Double Positive CD8+ T cells” value is recorded as 0.14.

Take “KEQILAVASLVSSQSIHPSWGQSPLSRI (listed as Homo sapiens) [FUS9, AP5S1->MAVS gene fusion]”: the “Max. Fold Change over background CD4+ TNFαINFγ double positive DP” value came out at 203.97, the “Max. Fold Change over background CD8+ TNFαINFγ double positive DP” value is reported as 1.82, the “Max. Frequency of CD4+ TNFαINFγ DP” value is 0.77 and the “Max. Frequency of CD8+ TNFαINFγ DP” value is 0.07.

For the substance “ANLKGTLQVRSGQAVSPR (listed as Homo sapiens) [AS21, RECQL4 alternative splicing]”, the “Max. Fold Change over background CD4+ TNFαINFγ double positive DP” value worked out at 1.7, the “Max. Fold Change over background CD8+ TNFαINFγ double positive DP” value is 3.81, the “Max. Frequency of CD4+ TNFαINFγ DP” value is recorded as 0.07 and the “Max. Frequency of CD8+ TNFαINFγ DP” value was found to be 0.12.

In the case of “CEERGAAGSLISCE (listed as Homo sapiens) [FUS6, TMPRSS2->ERG gene fusion]”, the “Maximum Fold Change Over Background CD4+ cells” value is reported as 2.27, the “Maximum Fold Change Over Background CD8+ cells” value was determined as 3.50, the “Maximum Frequency of TNFα/IFNγ Double Positive CD4+ T cells” value worked out at 0.016 and the “Maximum Frequency of TNFα/IFNγ Double Positive CD8+ T cells” value was 0.056.

As to “P27 (LHPQRETFTPRWSGANYWKLAFPVGAEGTFPAAATQRGVVRPA; listed as Homo sapiens) [Neoantigen P27]”, the “Max. Fold Change over background CD4+ TNFαINFγ double positive DP” value was found to be 45.38, the “Max. Fold Change over background CD8+ TNFαINFγ double positive DP” value stood at 7.87, the “Max. Frequency of CD4+ TNFαINFγ DP” value was found to be 0.05 and the “Max. Frequency of CD8+ TNFαINFγ DP” value came out at 0.59.

In the case of “VLRFLDLKVRYLHS (listed as Homo sapiens) [AS15, LRRC45 alternative splicing]”, the “Maximum Fold Change Over Background CD4+ cells” value worked out at 9.17, the “Maximum Fold Change Over Background CD8+ cells” value is recorded as 4.36, the “Maximum Frequency of TNFα/IFNγ Double Positive CD4+ T cells” value is on record as 0.110 and the “Maximum Frequency of TNFα/IFNγ Double Positive CD8+ T cells” value was found to be 0.061.

As for “MFLRKEQQVGPHSFSML (listed as Homo sapiens) [AS14, IQCG alternative splicing]”, the “Max. Fold Change over background CD4+ TNFαINFγ double positive DP” value worked out at 1.49, the “Max. Fold Change over background CD8+ TNFαINFγ double positive DP” value amounted to 3.81, the “Max. Frequency of CD4+ TNFαINFγ DP” value amounted to 0.06 and the “Max. Frequency of CD8+ TNFαINFγ DP” value came out at 0.12.

“DCMLSEEGGQARRGGSLCSLAAHTIASAARGRFLSRLSNFCAVVKASRGAPSCTWE (listed as Homo sapiens) [AS40, LRRC45 alternative splicing]”: the “Max. Fold Change over background CD4+ TNFαINFγ double positive DP” value is on record as 15.34, the “Max. Fold Change over background CD8+ TNFαINFγ double positive DP” value was determined as 178.52, the “Max. Frequency of CD4+ TNFαINFγ DP” value came out at 0.89 and the “Max. Frequency of CD8+ TNFαINFγ DP” value worked out at 2.41.

Regarding MS10 (TVRAILL; listed as Homo sapiens), the “Max. Fold Change over background CD4+ TNFαINFγ double positive DP” value stood at 74.17, the “Max. Fold Change over background CD8+ TNFαINFγ double positive DP” value worked out at 3.42, the “Max. Frequency of CD4+ TNFαINFγ DP” value turned out to be 0.28 and the “Max. Frequency of CD8+ TNFαINFγ DP” value is given as 0.13.

Regarding “ENSGNASRWLHVPSSSDDWLGWKKSSAITSNS (listed as Homo sapiens) [AS50, LRIF1 alternative splicing]”, the “Max. Fold Change over background CD4+ TNFαINFγ double positive DP” value was 17.22, the “Max. Fold Change over background CD8+ TNFαINFγ double positive DP” value worked out at 1.6, the “Max. Frequency of CD4+ TNFαINFγ DP” value was determined as 0.07 and the “Max. Frequency of CD8+ TNFαINFγ DP” value is given as 0.12.

“QPDSFAALHSSLNELGE (listed as Homo sapiens) [Neoantigen M86, AR L702H]”: the “Maximum Fold Change Over Background CD4+ cells” value is listed as 6.18, the “Maximum Fold Change Over Background CD8+ cells” value is listed as 4.22, the “Maximum Frequency of TNFα/IFNγ Double Positive CD4+ T cells” value was determined as 0.05 and the “Maximum Frequency of TNFα/IFNγ Double Positive CD8+ T cells” value is listed as 0.08.

In the case of “ENASLVFTGSNSPIPACELSSHPAHGISPWIPSPGNEHFHGIKKQVKAIKVE (listed as Homo sapiens) [AS48, SYT17 alternative splicing]”, the “Max. Fold Change over background CD4+ TNFαINFγ double positive DP” value is reported as 13.45, the “Max. Fold Change over background CD8+ TNFαINFγ double positive DP” value amounted to 9.21, the “Max. Frequency of CD4+ TNFαINFγ DP” value is 0.13 and the “Max. Frequency of CD8+ TNFαINFγ DP” value is 0.29.

On to “DYWAQKEKISIPRTHLC (listed as Homo sapiens) [AS6, ACSM1 alternative splicing]”, for which the “Maximum Fold Change Over Background CD4+ cells” value is listed as 31.67, the “Maximum Fold Change Over Background CD8+ cells” value came to 6.50, the “Maximum Frequency of TNFα/IFNγ Double Positive CD4+ T cells” value was found to be 0.380 and the “Maximum Frequency of TNFα/IFNγ Double Positive CD8+ T cells” value worked out at 0.078.

Regarding “RLTQRLVQGWTPMENRWCGRRAGGQPASSSTRWTTCRAACLLTKWTAGRSQTSIG (listed as Homo sapiens) [AS49, PDF alternative splicing]”, the “Max. Fold Change over background CD4+ TNFαINFγ double positive DP” value came out at 184.87, the “Max. Fold Change over background CD8+ TNFαINFγ double positive DP” value turned out to be 8.67, the “Max. Frequency of CD4+ TNFαINFγ DP” value is recorded as 0.14 and the “Max. Frequency of CD8+ TNFαINFγ DP” value is on record as 0.65.

“MS5 (EFSPETCAFRLS; listed as Homo sapiens)”: the “Max. Fold Change over background CD4+ TNFαINFγ double positive DP” value is reported as 126.05, the “Max. Fold Change over background CD8+ TNFαINFγ double positive DP” value was 32.89, the “Max. Frequency of CD4+ TNFαINFγ DP” value was determined as 0.2 and the “Max. Frequency of CD8+ TNFαINFγ DP” value is given as 1.95.
